Laboratory results as given in ChEMBL document CHEMBL3407484, “Evolution in medicinal chemistry of ursolic acid derivatives as anticancer agents” (Eur J Med Chem, 2015).

What was measured:
Format in all cases: functional, cell-based
[1] = Cytotoxicity against human SKOV3 cells by MTT assay; details: SK-OV-3
HeLa = assay: Cytotoxicity against human HeLa cells by MTT assay
[2] = Cytotoxicity against human BGC823 cells by MTT assay; details: BGC-823
HepG2 = assay: Cytotoxicity against human HepG2 cells by MTT assay

CC(=O)O[C@H]1CC[C@]2(C)[C@H]3CC=C4[C@@H]5[C@@H](C)[C@H](C)CC[C@]5(C(=O)NCCCN5CCOCC5)CC[C@@]4(C)[C@]3(C)CC[C@H]2C1(C)C
IC50 [1]: 7.4 µM | IC50 (HeLa): 2.71 µM | IC50 [2]: 4.46 µM

C[C@H]1[C@H](C)CC[C@]2(C(=O)O)CC[C@]3(C)C(=CC[C@@H]4[C@@]5(C)CC[C@H](OC(=O)CCC(=O)OCCOc6no[n+]([O-])c6S(=O)(=O)c6ccccc6)C(C)(C)[C@@H]5CC[C@]43C)[C@H]12
IC50 (HepG2): 3.2 µM
